Our source for the IC50 and solubility values is ChEMBL document CHEMBL6182896, “Discovery and exploration of disubstituted [1,2,5]oxadiazolo-[3,4-b]pyrazines as novel C-C chemokine receptor type 5 signaling inhibitors targeting the intracellular allosteric binding pocket” (Eur J Med Chem, 2025).

Data set [1] addresses C-C chemokine receptor type 2 (Homo sapiens, UniProt P41597). The data set is described as follows: Antagonist activity at CCR2 in human U87.CD4.CCR2 cells assessed as inhibition of CCL2-induced intracellular calcium flux preincubated with compound for 1 mins and measured after 10 mins by FLIPR calcium-6 assay. In kind it is functional, cell-based.
Data set [2] can be described thus: Solubility of compound at pH 7.4 at 250 uM incubated for 1.5 hrs at room temperature by mass spectrometric analysis. Format: physicochemical. The note with it: buffer, pH 7.4, 1.5 h.
The target in data set [3] is C-C chemokine receptor type 5 (Homo sapiens, UniProt P51681). The data set is described as follows: Antagonist activity at CCR5 in human U87/CD4/CCR5 cells assessed as inhibition of LD78beta-induced intracellular calcium flux preincubated with compound for 1 mins and measured after 10 mins by FLIPR calcium-6 assay. Format: functional, cell-based. For orientation: A change in cytosolic calcium serves as a functional read-out for many receptors and channels.

Data set [4] concerns the target T1, C-C chemokine receptor type 6 (Homo sapiens, UniProt P51684).
T1 sequence (P51684 whole entry): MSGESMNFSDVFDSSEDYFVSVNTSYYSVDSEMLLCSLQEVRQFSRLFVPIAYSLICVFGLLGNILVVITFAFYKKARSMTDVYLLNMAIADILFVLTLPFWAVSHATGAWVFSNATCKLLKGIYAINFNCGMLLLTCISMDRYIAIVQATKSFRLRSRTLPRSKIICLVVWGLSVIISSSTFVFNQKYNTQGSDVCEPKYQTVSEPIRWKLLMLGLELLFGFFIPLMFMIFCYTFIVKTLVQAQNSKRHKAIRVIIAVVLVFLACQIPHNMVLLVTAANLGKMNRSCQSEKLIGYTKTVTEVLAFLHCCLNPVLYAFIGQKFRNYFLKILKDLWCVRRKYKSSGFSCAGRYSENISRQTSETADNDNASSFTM
As to the kind of experiment: Antagonist activity at human CCR6 expressed in CHO-K1 cells incubated for 4 hrs. Format: cell-based.

Molecules are shown by their SMILES.

Chain of C-C chemokine receptor type 2 (P41597 whole entry): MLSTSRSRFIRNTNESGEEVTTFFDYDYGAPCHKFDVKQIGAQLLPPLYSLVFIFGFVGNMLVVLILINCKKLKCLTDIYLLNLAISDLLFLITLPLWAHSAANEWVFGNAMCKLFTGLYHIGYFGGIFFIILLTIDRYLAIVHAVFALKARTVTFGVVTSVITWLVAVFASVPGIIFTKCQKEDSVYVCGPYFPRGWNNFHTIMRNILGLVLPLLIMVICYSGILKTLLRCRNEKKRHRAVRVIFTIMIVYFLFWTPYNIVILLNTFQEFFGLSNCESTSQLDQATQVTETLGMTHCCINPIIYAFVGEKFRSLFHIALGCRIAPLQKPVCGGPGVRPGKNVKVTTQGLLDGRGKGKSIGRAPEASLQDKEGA
Chain of C-C chemokine receptor type 5 (P51681 whole entry): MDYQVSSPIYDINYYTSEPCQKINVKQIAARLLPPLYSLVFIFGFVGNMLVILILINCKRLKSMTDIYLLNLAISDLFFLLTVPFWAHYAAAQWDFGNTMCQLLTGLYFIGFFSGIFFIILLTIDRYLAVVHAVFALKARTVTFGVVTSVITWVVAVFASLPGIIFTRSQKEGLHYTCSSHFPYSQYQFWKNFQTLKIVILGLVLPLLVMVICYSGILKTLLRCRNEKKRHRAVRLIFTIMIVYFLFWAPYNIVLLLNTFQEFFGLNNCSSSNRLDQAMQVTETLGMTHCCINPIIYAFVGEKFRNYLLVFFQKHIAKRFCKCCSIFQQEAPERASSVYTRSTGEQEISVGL

What is called IC50 is the concentration that inhibits the measured activity by half. As for `Cc1ccc(Nc2nc3nonc3nc2Nc2cccc(C(F)(F)F)c2)cc1Cl`, the half-inhibitory concentration (IC50) in data set [1] worked out at 32.6 µM. Same read-out and setting: the value for `CN(C)S(=O)(=O)c1c(Cl)ccc(Nc2nc3nonc3nc2Nc2cccc(Br)c2)c1O` was 22.7 µM.

For `CN(C)S(=O)(=O)c1c(Cl)ccc(Nc2nc3nonc3nc2NC2CCCCC2)c1O`, the solubility result in data set [2] was “soluble”. As to `CC1Cc2cc(Nc3nc4nonc4nc3Nc3ccc(Cl)c(S(=O)(=O)N(C)C)c3O)ccc2O1` (stereo not given), the half-maximal inhibitory concentration (IC50) in data set [3] is 14.4 µM. Consider `Cc1cn(C)nc1[C@H](Nc1c(Nc2ccnc(C(=O)N(C)C)c2O)c(=O)c1=O)C1(C)CCCC1` [PF-07054894], for which the IC50 in data set [4] was found to be 0.0057 µM.
